“Also recorded” adds a separate entry of the source. Where two headings read alike, the source gives them in different places.
Experiments:
Assay in all cases: TGFα-shedding assay-based GPCR screening with chimeric Gα subunit proteins
Format in all cases: cell-based
348 GPCRs [1] = target: T1, 348 GPCRs (Homo sapiens, UniProt O00574)
T1 construct: expressed in transfected cells; host or cells: HEK293A

348 GPCRs [2] = target: T2, 348 GPCRs (Homo sapiens, UniProt O95136); details: 10µM, Favipiravir 100μM
T2 construct: expressed in transfected cells; host or cells: HEK293A
T2 sequence (O95136 whole entry): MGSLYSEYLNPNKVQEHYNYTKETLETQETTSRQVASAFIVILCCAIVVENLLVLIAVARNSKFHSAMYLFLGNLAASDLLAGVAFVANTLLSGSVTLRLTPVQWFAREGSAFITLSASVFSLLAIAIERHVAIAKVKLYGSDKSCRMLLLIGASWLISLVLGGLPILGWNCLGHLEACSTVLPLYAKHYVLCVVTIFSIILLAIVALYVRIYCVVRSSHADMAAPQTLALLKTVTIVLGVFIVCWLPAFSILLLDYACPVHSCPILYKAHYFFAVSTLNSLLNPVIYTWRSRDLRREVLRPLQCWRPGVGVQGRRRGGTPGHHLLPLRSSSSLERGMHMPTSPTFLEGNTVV

348 GPCRs [3] = target: T3, 348 GPCRs (Homo sapiens, UniProt P04001); details: 10µM, Favipiravir 100μM
T3 construct: expressed in transfected cells; host or cells: HEK293A
T3 sequence (P04001 1-364): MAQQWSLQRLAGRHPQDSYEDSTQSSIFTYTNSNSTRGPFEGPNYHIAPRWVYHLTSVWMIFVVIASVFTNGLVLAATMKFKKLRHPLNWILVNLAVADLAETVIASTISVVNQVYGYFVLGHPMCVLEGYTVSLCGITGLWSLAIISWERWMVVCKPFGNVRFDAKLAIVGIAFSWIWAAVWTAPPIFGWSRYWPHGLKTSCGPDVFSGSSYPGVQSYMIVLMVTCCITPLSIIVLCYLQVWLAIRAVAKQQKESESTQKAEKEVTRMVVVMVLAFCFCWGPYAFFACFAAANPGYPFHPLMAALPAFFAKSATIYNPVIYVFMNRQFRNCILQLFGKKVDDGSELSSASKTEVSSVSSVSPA

348 GPCRs [4] = target: T4, 348 GPCRs (Homo sapiens, UniProt P47898); details: 10µM, Favipiravir 100μM
T4 construct: expressed in transfected cells; host or cells: HEK293A
T4 sequence (P47898 whole entry): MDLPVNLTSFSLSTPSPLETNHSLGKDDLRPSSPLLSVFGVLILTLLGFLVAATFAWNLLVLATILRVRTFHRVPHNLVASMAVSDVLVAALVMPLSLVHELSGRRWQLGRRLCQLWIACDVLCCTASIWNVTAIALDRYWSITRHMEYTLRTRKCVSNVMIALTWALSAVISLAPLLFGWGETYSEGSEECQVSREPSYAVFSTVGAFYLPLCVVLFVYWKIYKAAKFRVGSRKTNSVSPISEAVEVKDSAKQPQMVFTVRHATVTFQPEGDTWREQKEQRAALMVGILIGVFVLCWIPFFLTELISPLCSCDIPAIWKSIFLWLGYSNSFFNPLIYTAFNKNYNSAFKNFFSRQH

348 GPCRs [5] = target: T5, 348 GPCRs (Homo sapiens, UniProt P48544); details: 10µM, Favipiravir 100μM
T5 construct: expressed in transfected cells; host or cells: HEK293A
T5 sequence (P48544 1-419): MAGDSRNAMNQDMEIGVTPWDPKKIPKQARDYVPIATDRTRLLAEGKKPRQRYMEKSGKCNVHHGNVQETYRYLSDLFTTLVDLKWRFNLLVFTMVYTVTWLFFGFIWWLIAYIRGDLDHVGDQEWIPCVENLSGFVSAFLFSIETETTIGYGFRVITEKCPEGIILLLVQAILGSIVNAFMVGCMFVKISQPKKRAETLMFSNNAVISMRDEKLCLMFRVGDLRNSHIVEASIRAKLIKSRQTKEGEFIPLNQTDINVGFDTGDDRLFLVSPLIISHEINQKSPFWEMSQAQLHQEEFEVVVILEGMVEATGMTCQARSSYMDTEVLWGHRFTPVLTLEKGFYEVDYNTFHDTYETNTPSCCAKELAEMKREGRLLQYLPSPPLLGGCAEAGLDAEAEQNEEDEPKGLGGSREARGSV

348 GPCRs [6] = target: T6, 348 GPCRs (Homo sapiens, UniProt P48960)
T6 construct: expressed in transfected cells; host or cells: HEK293A
T6 sequence (P48960 21-835): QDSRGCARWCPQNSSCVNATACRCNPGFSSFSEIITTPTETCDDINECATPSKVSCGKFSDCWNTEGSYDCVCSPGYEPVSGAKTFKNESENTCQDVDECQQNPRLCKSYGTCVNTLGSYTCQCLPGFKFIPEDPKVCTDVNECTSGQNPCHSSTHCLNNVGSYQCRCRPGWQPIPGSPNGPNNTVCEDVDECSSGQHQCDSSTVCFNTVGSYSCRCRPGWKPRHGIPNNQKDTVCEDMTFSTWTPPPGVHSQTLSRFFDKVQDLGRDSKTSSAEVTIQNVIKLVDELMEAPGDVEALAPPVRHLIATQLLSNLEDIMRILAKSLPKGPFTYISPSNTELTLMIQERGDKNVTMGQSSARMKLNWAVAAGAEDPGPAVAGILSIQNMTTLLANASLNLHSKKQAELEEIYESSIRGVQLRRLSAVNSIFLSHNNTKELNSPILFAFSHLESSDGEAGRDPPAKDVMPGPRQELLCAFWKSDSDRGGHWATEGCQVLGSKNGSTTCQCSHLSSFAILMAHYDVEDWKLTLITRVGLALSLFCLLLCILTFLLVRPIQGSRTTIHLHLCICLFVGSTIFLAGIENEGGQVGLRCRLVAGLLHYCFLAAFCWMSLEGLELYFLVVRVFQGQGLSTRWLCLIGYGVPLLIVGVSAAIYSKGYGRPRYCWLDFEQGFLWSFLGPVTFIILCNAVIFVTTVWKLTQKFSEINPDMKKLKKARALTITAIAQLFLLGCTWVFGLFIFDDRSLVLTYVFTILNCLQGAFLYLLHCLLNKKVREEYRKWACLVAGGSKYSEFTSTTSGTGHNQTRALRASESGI

348 GPCRs [7] = target: T7, 348 GPCRs (Homo sapiens, UniProt Q8TDU9); details: RXFP4 (relaxin/insulin-like family peptide receptor 4); 10µM, Favipiravir 100μM
T7 construct: expressed in transfected cells; host or cells: HEK293A
T7 sequence (Q8TDU9 whole entry): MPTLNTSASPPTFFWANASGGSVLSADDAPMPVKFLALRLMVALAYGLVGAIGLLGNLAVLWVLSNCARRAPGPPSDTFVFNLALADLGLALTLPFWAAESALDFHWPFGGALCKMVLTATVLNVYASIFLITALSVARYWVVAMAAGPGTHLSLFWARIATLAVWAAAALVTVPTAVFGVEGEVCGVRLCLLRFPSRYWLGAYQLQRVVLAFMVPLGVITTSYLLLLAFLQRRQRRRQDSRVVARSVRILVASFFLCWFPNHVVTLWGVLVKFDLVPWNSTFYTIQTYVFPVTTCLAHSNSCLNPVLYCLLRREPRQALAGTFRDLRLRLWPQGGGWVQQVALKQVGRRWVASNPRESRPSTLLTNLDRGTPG

348 GPCRs [8] = target: T8, 348 GPCRs (Homo sapiens, UniProt Q96CH1); details: 10µM, Favipiravir 100μM
T8 construct: expressed in transfected cells; host or cells: HEK293A
T8 sequence (Q96CH1 whole entry): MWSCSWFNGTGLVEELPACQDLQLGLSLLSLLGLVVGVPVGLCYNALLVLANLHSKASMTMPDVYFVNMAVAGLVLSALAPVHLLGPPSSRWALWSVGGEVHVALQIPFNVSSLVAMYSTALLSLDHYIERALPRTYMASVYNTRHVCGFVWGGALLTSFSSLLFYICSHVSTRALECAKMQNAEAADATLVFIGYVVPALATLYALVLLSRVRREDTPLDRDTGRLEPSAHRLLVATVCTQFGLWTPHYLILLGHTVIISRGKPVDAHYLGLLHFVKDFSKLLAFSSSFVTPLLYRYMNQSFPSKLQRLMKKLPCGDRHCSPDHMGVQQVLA

348 GPCRs [9] = target: T9, 348 GPCRs (Homo sapiens, UniProt Q9NYV7); details: 10µM, Favipiravir 100μM
T9 construct: expressed in transfected cells; host or cells: HEK293A
T9 sequence (Q9NYV7 1-291): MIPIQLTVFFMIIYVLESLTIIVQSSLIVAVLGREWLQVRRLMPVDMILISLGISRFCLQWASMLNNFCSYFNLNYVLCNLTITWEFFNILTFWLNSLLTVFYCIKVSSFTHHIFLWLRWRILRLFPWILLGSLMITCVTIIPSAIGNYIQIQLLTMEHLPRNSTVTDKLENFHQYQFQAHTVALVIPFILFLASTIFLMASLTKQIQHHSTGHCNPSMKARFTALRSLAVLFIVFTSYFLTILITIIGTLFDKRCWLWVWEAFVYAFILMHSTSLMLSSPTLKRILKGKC

348 GPCRs [10] = tested on: 348 GPCRs
[11] = GPCR CXCR6 (C-X-C motif chemokine receptor 6), read-out: % GPCR activation compared to TPA
[12] = S1PR2 (sphingosine-1-phosphate receptor 2), read-out: % GPCR activation compared to TPA
[13] = OPN1MW (opsin 1 (cone pigments), medium-wave-sensitive), read-out: % GPCR activation compared to TPA
[14] = 5-HT5A (5-hydroxytryptamine receptor 5A), read-out: % GPCR activation compared to TPA
[15] = KCNJ5 (potassium inwardly rectifying channel, subfamily J, member 5), read-out: % GPCR activation compared to TPA
[16] = GPCR CD97 (adhesion G protein-coupled receptor E5), read-out: % GPCR activation compared to TPA
[17] = GPR146 (G protein-coupled receptor 146), read-out: % GPCR activation compared to TPA
[18] = TAS2R16 (taste receptor, type 2, member 16), read-out: % GPCR activation compared to TPA
[19] = EP3 iso6 (prostaglandin E receptor 3 iso6), 10µM, Favipiravir 100μM
[20] = GPCR GPR68 long (G protein-coupled receptor 68 long), 10µM
[21] = GPCR LTB4R2B (leukotriene B4 receptor 2), 10µM
[22] = GPCR P2Y13 short (purinergic receptor P2Y, G-protein coupled, 13 short), 10µM
[23] = GPR17 short (G protein-coupled receptor 17 short), 10µM, Favipiravir 100μM
[24] = read-out: % GPCR activation compared to TPA, GPCR CXCR6 (C-X-C motif chemokine receptor 6)
[25] = read-out: % GPCR activation compared to TPA, S1PR2 (sphingosine-1-phosphate receptor 2)
[26] = read-out: % GPCR activation compared to TPA, OPN1MW (opsin 1 (cone pigments), medium-wave-sensitive)
[27] = read-out: % GPCR activation compared to TPA, 5-HT5A (5-hydroxytryptamine receptor 5A)
[28] = read-out: % GPCR activation compared to TPA, KCNJ5 (potassium inwardly rectifying channel, subfamily J, member 5)
[29] = read-out: % GPCR activation compared to TPA, GPCR CD97 (adhesion G protein-coupled receptor E5)
[30] = read-out: % GPCR activation compared to TPA, GPR146 (G protein-coupled receptor 146)
[31] = read-out: % GPCR activation compared to TPA, TAS2R16 (taste receptor, type 2, member 16)

T1 sequence (O00574 whole entry): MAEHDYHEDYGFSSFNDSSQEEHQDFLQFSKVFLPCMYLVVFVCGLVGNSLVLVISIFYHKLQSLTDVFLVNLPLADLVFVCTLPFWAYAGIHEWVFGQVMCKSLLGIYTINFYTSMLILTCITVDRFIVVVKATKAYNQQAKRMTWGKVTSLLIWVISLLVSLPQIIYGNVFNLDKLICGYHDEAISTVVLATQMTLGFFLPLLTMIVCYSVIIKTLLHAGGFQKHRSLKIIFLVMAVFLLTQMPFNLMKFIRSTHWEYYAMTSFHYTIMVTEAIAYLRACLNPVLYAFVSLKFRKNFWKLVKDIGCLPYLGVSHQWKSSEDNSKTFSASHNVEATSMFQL

Structure (SMILES)	activation at 10 µM (348 GPCRs [1]; [11]) [%]	activation at 10 µM (348 GPCRs [2]; [12]) [%]	activation at 100 µM (348 GPCRs [3]; [13]) [%]	activation at 100 µM (348 GPCRs [4]; [14]) [%]	activation at 100 µM (348 GPCRs [5]; [15]) [%]	activation at 10 µM (348 GPCRs [6]; [16]) [%]	% GPCR activation compared to TPA (348 GPCRs [7]) [%]	activation at 100 µM (348 GPCRs [8]; [17]) [%]	activation at 100 µM (348 GPCRs [9]; [18]) [%]	% GPCR activation compared to TPA (348 GPCRs [10]; [19]) [%]	% GPCR activation compared to TPA (348 GPCRs [10]; [20]) [%]	% GPCR activation compared to TPA (348 GPCRs [10]; [21]) [%]	% GPCR activation compared to TPA (348 GPCRs [10]; [22]) [%]	% GPCR activation compared to TPA (348 GPCRs [10]; [23]) [%]	activation at 10 µM (348 GPCRs [1]; [24]) [%]	activation at 10 µM (348 GPCRs [2]; [25]) [%]	activation at 100 µM (348 GPCRs [3]; [26]) [%]	activation at 100 µM (348 GPCRs [4]; [27]) [%]	activation at 100 µM (348 GPCRs [5]; [28]) [%]	activation at 10 µM (348 GPCRs [6]; [29]) [%]	further results
N#C[C@@]1(c2ccc3c(N)ncnn23)O[C@H](CO)[C@@H](O)[C@H]1O [GS441524]	-0.956	-1.37	-1.4	-3.98	1.89	-3.9	-0.3375	0.00864	-2.06	-0.4587	3.274	-0.1822	0.9471	2.36							
CC(C)OC(=O)[C@H](C)N[P@](=O)(OC[C@H]1O[C@@H](n2ccc(=O)[nH]c2=O)[C@](C)(F)[C@@H]1O)Oc1ccccc1 [sofosbuvir]							-1.565			-2.666	-162.099	1.863	-2.679	1.814	-0.824	0.199	-1.41	-0.524	-2.66	-1.88	activation at 100 µM (348 GPCRs [8]; [30]): -6.46%; activation at 100 µM (348 GPCRs [9]; [31]): -1%
CCC(CC)COC(=O)[C@H](C)N[P@](=O)(OC[C@H]1O[C@@](C#N)(c2ccc3c(N)ncnn23)[C@H](O)[C@@H]1O)Oc1ccccc1 [remdesivir]							0.9967			1.469	-2.927	-0.9744	2.55	2.96	0.837	-3.06	1.48	-0.876	1.55	1.2	activation at 100 µM (348 GPCRs [8]; [30]): 1.36%; activation at 100 µM (348 GPCRs [9]; [31]): 0.556%; GPCR activation in screening against 348 GPCRs (348 GPCRs [10]; 10 μM remdesivir, molnupiravir, 100 μM favipiravir, chimeric Gα): selectively activate UTS2R; also recorded: selective activator for the urotensin-II receptor (UTS2R); effect on adenosine receptors (348 GPCRs [10]; GPCR assay, adenosine receptors): no effect on adenosine receptors
CC(C)C(=O)OC[C@H]1O[C@@H](n2ccc(NO)nc2=O)[C@H](O)[C@@H]1O [molnupiravir]	0.979	-2.13	-0.857	-1.01	-0.841	-0.34	-0.4598	-4.56	-0.65	-0.792	-159.537	-0.2056	-3.484	0.1735							
NC(=O)c1nc(F)cnc1O [favipiravir, 6-fluoro-3-hydroxy-2-pyrazinecarboxamide]		-1.8	-0.549	-2.45	-1.78		1.69	0.0656	0.411	0.2801				-0.5013							activation at 100 µM (348 GPCRs [1]; GPCR CXCR6 (C-X-C motif chemokine receptor 6), 100μM, read-out: % GPCR activation compared to TPA): -1.02%; activation at 100 µM (348 GPCRs [6]; GPCR CD97 (adhesion G protein-coupled receptor E5), 100μM, read-out: % GPCR activation compared to TPA): -3.34%; % GPCR activation compared to TPA (348 GPCRs [10]; GPCR GPR68 long (G protein-coupled receptor 68 long), 100μM): 5.02%; % GPCR activation compared to TPA (348 GPCRs [10]; GPCR LTB4R2B (leukotriene B4 receptor 2), 100μM): -0.02753%; % GPCR activation compared to TPA (348 GPCRs [10]; GPCR P2Y13 short (purinergic receptor P2Y, G-protein coupled, 13 short), 100μM): 1.698%

From PMC10175918 (Communications Biology, 2023)
